Where a SMILES comes first, the peptide text is derived from it. Bridges are numbered along the chain shown (N, C = ends). Where no end group is shown, it is not given here.

The assay concerns the target T1, rat PAC1 receptor (Rattus norvegicus, UniProt P32215).
T1 construct: SHSY-5Y (human neuroblastoma cell line) and RG-2 (rat glioma cell line) cells endogenously express human and rat PAC1 receptors, respectively; endogenous in cells; host or cells: RG-2 rat glioma cells
T1 sequence (P32215 20-523): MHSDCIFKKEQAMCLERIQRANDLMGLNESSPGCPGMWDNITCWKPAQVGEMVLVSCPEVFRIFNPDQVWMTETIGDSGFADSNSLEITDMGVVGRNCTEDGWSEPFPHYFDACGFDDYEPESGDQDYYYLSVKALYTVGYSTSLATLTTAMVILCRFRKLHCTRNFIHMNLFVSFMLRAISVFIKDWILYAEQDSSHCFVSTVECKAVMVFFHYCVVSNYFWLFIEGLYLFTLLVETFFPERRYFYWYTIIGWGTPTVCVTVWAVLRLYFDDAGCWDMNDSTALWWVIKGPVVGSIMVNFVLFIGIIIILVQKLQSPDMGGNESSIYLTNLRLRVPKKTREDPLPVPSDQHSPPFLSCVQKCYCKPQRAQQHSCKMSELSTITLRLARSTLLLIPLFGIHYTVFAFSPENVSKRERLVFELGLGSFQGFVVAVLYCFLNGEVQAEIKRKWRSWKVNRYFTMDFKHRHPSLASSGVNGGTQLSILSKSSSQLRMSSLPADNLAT
Put plainly: LANCE Ultra cAMP accumulation antagonist assay in RG-2 cells.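 Further: RG-2 rat glioma cells endogenously expressing PAC1, test peptide preincubated 30 min, then PAC1 agonist added at its EC80 for 15 min, cAMP accumulation read by LANCE Ultra.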 It is filed as cell-based. (Time-resolved FRET reads energy transfer from a long-lived donor to a nearby acceptor.)
`CC[C@H](C)[C@H](NC(=O)[C@H](C)NC(=O)[C@H](CCCCN)NC(=O)[C@H](CCCNC(=N)N)NC(=O)[C@H](Cc1ccccc1)NC(=O)[C@H](CCC(N)=O)NC(=O)[C@@H]1CSSC[C@H](N)C(=O)N[C@@H](CC(=O)O)C(=O)N[C@@H](C)C(=O)N[C@@H]([C@@H](C)O)C(=O)N1)C(=O)N[C@@H](CC(=O)O)C(=O)N[C@@H](CC(=O)O)C(=O)N[C@H]1CSSC[C@@H](C(=O)N[C@@H](CCSC)C(=O)N[C@@H](CCCCN)C(=O)N[C@@H](CCC(N)=O)C(=O)N[C@@H](CCCCN)C(=O)N[C@@H](CCCCN)C(=O)N[C@@H](CCCCN)C(=O)N[C@@H](CCC(=O)O)C(=O)N[C@@H](Cc2c[nH]c3ccccc23)C(=O)N[C@@H](CCCCN)C(=O)N[C@@H](C)C(=O)N[C@@H](Cc2c[nH]cn2)C(=O)O)NC(=O)[C@H](C)NC(=O)[C@H](CCCCN)NC(=O)[C@H](Cc2ccccc2)NC(=O)[C@H](CO)NC(=O)[C@H](Cc2c[nH]cn2)NC(=O)[C@H](Cc2ccc(O)cc2)NC(=O)[C@H](C)NC(=O)[C@H](CCC(N)=O)NC(=O)[C@H](CCCNC(=N)N)NC(=O)[C@H](C)NC1=O` [compound 451] (H-CDATCQFRKAIDDCARQAYHSFKACMKQKKKEWKAH-OH; disulfide 1-5, 14-25) gave an IC50 of 1 to 100 nM.

`CSCC[C@H](NC(=O)[C@H](C)NC(=O)[C@@H](NC(=O)[C@H](CCCCN)NC(=O)[C@H](CCCCN)NC(=O)[C@H](Cc1ccc(O)cc1)NC(=O)[C@H](CC(C)C)NC(=O)[C@H](CO)NC(=O)[C@H](C)NC(=O)[C@@H](NC(=O)[C@H](CC(C)C)NC(=O)CNC(=O)[C@H](CCCCN)NC(=O)[C@H](CCCNC(=N)N)NC(=O)[C@H](Cc1ccc(O)cc1)NC(=O)[C@H](CCC(N)=O)NC(=O)[C@@H]1CSSC[C@H](N)C(=O)N[C@@H](CC(=O)O)C(=O)N[C@@H](C)C(=O)N[C@@H]([C@@H](C)O)C(=O)N1)C(C)C)C(C)C)C(=O)N[C@@H](CCC(N)=O)C(=O)N[C@@H](CCCCN)C(=O)N[C@@H](CCCNC(=N)N)C(=O)N[C@@H](Cc1ccc(O)cc1)C(N)=O` [compound 437] (H-CDATCQYRKGLVASLYKKVAMQKRY-NH2; disulfide 1-5): the IC50 was more than 100 nM.

Regarding “ACDATCQFRKAIDDCQKQAHHSNVPGSVFKACMKQKKKEFKAG-NH2 (disulfide 2-6, 15-32) [compound 184]”, the IC50 was in the range of 0.01 to 1 nM.

In the case of “CDATCQFRKAIDDCQKQAHHSNVPGSVFKACMKQKKKEFKAGK (disulfide 1-5, 14-31) [compound 182]”, the IC50 was 0.01 to 1 nM.

Turning to `CC[C@H](C)[C@H](NC(=O)[C@H](C)NC(=O)[C@H](CCCCN)NC(=O)[C@H](CCCNC(=N)N)NC(=O)[C@H](Cc1ccccc1)NC(=O)[C@H](CCC(N)=O)NC(=O)[C@@H]1CSSC[C@H](N)C(=O)N[C@@H](CC(=O)O)C(=O)N[C@@H](C)C(=O)N[C@@H]([C@@H](C)O)C(=O)N1)C(=O)N[C@@H](CC(=O)O)C(=O)N[C@@H](CC(=O)O)C(=O)N[C@H]1CSSC[C@@H](C(=O)N[C@@H](CCSC)C(=O)N[C@@H](CCCCN)C(=O)N[C@@H](CCC(N)=O)C(=O)N[C@@H](CCCCN)C(=O)N[C@@H](CCCCN)C(=O)N[C@@H](CCCCN)C(=O)N[C@@H](CCC(=O)O)C(=O)N[C@@H](Cc2c[nH]c3ccccc23)C(=O)N[C@@H](CCCCN)C(=O)N[C@@H](C)C(=O)NCC(N)=O)NC(=O)[C@H](C)NC(=O)[C@H](CCCCN)NC(=O)[C@H](Cc2ccccc2)NC(=O)[C@H](C(C)C)NC(=O)[C@H](CO)NC(=O)[C@H](CO)NC(=O)[C@H](Cc2c[nH]cn2)NC(=O)[C@H](CO)NC(=O)[C@H](C)NC(=O)[C@H](CCC(N)=O)NC(=O)[C@H](CCCNC(=N)N)NC(=O)[C@H](C)NC1=O` [compound 433] (H-CDATCQFRKAIDDCARQASHSSVFKACMKQKKKEWKAG-NH2; disulfide 1-5, 14-27), the IC50 was less than 0.01 nM.

For `CC[C@H](C)[C@H](NC(=O)[C@H](C)NC(=O)[C@H](CCCCN)NC(=O)[C@H](CCCNC(=N)N)NC(=O)[C@H](Cc1ccccc1)NC(=O)[C@H](CCC(N)=O)NC(=O)[C@@H]1CSSC[C@H](N)C(=O)N[C@@H](CC(=O)O)C(=O)N[C@@H](C)C(=O)N[C@@H]([C@@H](C)O)C(=O)N1)C(=O)N[C@@H](CC(=O)O)C(=O)N[C@@H](CC(=O)O)C(=O)N[C@H]1CSSC[C@@H](C(=O)N[C@@H](CCSC)C(=O)N[C@@H](CCCCN)C(=O)N[C@@H](CCC(N)=O)C(=O)N[C@@H](CCCCN)C(=O)N[C@@H](CCCCN)C(=O)N[C@@H](CCCCN)C(=O)N[C@@H](CCC(=O)O)C(=O)N[C@@H](Cc2c[nH]c3ccccc23)C(=O)N[C@@H](CCCCN)C(=O)N[C@@H](C)C(=O)NCC(=O)N[C@@H](Cc2c[nH]cn2)C(=O)O)NC(=O)[C@H](C)NC(=O)[C@H](CCCCN)NC(=O)[C@H](Cc2ccccc2)NC(=O)[C@H](C)NC(=O)[C@H](C)NC1=O` [compound 443] (H-CDATCQFRKAIDDCAAFKACMKQKKKEWKAGH-OH; disulfide 1-5, 14-20), the IC50 is more than 100 nM.

In the case of `CC[C@H](C)[C@H](NC(=O)[C@H](C)NC(=O)[C@H](CCCCN)NC(=O)[C@H](CCCNC(=N)N)NC(=O)[C@H](Cc1ccccc1)NC(=O)[C@H](CCC(N)=O)NC(=O)[C@@H]1CSSC[C@H](N)C(=O)N[C@@H](CC(=O)O)C(=O)N[C@@H](C)C(=O)N[C@@H]([C@@H](C)O)C(=O)N1)C(=O)N[C@@H](CC(=O)O)C(=O)N[C@@H](CC(=O)O)C(=O)N[C@H]1CSSC[C@@H](C(=O)N[C@@H](CCSC)C(=O)N[C@@H](CCCCN)C(=O)N[C@@H](CCC(N)=O)C(=O)N[C@@H](CCCCN)C(=O)N[C@@H](CCCCN)C(=O)N[C@@H](CCCCN)C(=O)N[C@@H](CCC(=O)O)C(=O)N[C@@H](Cc2c[nH]c3ccccc23)C(=O)N[C@@H](CCCCN)C(=O)N[C@@H](C)C(=O)NCC(N)=O)NC(=O)[C@H](C)NC(=O)[C@H](CCCCN)NC(=O)[C@H](Cc2ccccc2)NC(=O)[C@H](C(C)C)NC(=O)[C@H](CO)NC(=O)[C@H](CO)NC(=O)[C@H](Cc2c[nH]cn2)NC(=O)[C@H](CCCCN)NC(=O)[C@H](C)NC(=O)[C@H](CCC(N)=O)NC(=O)[C@H](CCCNC(=N)N)NC(=O)[C@H](C)NC1=O` [compound 434] (H-CDATCQFRKAIDDCARQAKHSSVFKACMKQKKKEWKAG-NH2; disulfide 1-5, 14-27), the IC50 was less than 0.01 nM.

With “CDATCQFRKAIDDCAGTARHSNVPGSVFKACMKQKKKEWKAG-NH2 (disulfide 1-5, 14-31) [compound 446]”, the IC50 was in the range of 1 to 100 nM.

Turning to `CC[C@H](C)[C@H](NC(=O)[C@H](C)NC(=O)[C@H](CCCCN)NC(=O)[C@H](CCCNC(=N)N)NC(=O)[C@H](Cc1ccccc1)NC(=O)[C@H](CCC(N)=O)NC(=O)[C@@H]1CSSC[C@H](N)C(=O)N[C@@H](CC(=O)O)C(=O)N[C@@H](C)C(=O)N[C@@H]([C@@H](C)O)C(=O)N1)C(=O)N[C@@H](CC(=O)O)C(=O)N[C@@H](CC(=O)O)C(=O)N[C@H]1CSSC[C@@H](C(=O)N[C@@H](CCSC)C(=O)N[C@@H](CCCCN)C(=O)N[C@@H](CCC(N)=O)C(=O)N[C@@H](CCCCN)C(=O)N[C@@H](CCCCN)C(=O)N[C@@H](CCCCN)C(=O)N[C@@H](CCC(=O)O)C(=O)N[C@@H](Cc2c[nH]c3ccccc23)C(=O)N[C@@H](CCCCN)C(=O)N[C@@H](C)C(=O)NCC(N)=O)NC(=O)[C@H](C)NC(=O)[C@H](CCCCN)NC(=O)[C@H](Cc2ccccc2)NC(=O)[C@H](C(C)C)NC(=O)[C@H](CO)NC(=O)[C@H](CO)NC(=O)[C@H](Cc2c[nH]cn2)NC(=O)[C@H](Cc2ccc(O)cc2)NC(=O)[C@H](CO)NC(=O)[C@H](CCC(N)=O)NC(=O)[C@H](CCCNC(=N)N)NC(=O)[C@H](C)NC1=O` [compound 432] (H-CDATCQFRKAIDDCARQSYHSSVFKACMKQKKKEWKAG-NH2; disulfide 1-5, 14-27), the IC50 is less than 0.01 nM.

In turn, `CC[C@H](C)[C@H](NC(=O)[C@H](C)NC(=O)[C@H](CCCCN)NC(=O)[C@H](CCCNC(=N)N)NC(=O)[C@H](Cc1ccccc1)NC(=O)[C@H](CCC(N)=O)NC(=O)[C@@H]1CSSC[C@H](N)C(=O)N[C@@H](CC(=O)O)C(=O)N[C@@H](C)C(=O)N[C@@H]([C@@H](C)O)C(=O)N1)C(=O)N[C@@H](CC(=O)O)C(=O)N[C@@H](CC(=O)O)C(=O)N[C@H]1CSSC[C@@H](C(=O)N[C@@H](CCSC)C(=O)N[C@@H](CCCCN)C(=O)N[C@@H](CCC(N)=O)C(=O)N[C@@H](CCCCN)C(=O)N[C@@H](CCCCN)C(=O)N[C@@H](CCCCN)C(=O)N[C@@H](CCC(=O)O)C(=O)N[C@@H](Cc2c[nH]c3ccccc23)C(=O)N[C@@H](CCCCN)C(=O)N[C@@H](C)C(=O)NCC(=O)N[C@@H](Cc2c[nH]cn2)C(=O)O)NC(=O)[C@H](C)NC(=O)[C@H](CCCCN)NC(=O)[C@H](Cc2ccccc2)NC(=O)[C@H](CO)NC(=O)[C@H](Cc2c[nH]cn2)NC(=O)[C@H](Cc2ccc(O)cc2)NC(=O)[C@H](C)NC(=O)[C@H](CCC(N)=O)NC(=O)[C@H](CCCNC(=N)N)NC(=O)[C@H](C)NC1=O` [compound 439] (H-CDATCQFRKAIDDCARQAYHSFKACMKQKKKEWKAGH-OH; disulfide 1-5, 14-25) displayed an IC50 of 0.01 to 1 nM.

For “CDATCQFRKAIDDCQKQAHHSNVPGSVFKACMKQKKKEFKAGH (disulfide 1-5, 14-31) [compound 171]”, the IC50 was in the range of 0.01 to 1 nM.

“CDATCQFRKAIDDCQKQAHHSNVPGSVFKACMKQKKKEFKAN (disulfide 1-5, 14-31) [compound 202]” showed an IC50 of 0.01 to 1 nM.

In turn, “CDATCQFRKAIDDCANKSWHSNVPGSVFKLCMKQKKKEWKAGH-NH2 (disulfide 1-5, 14-31) [compound 445]” gave an IC50 of more than 100 nM.

Molecule “CDATCQFRKAIDDCQKQAHHSNVPGSVFKSCMKQKKKEFKAG-NH2 (disulfide 1-5, 14-31) [compound 207]” registered an IC50 of 0.01 to 1 nM.

As to “CDATCQFRKCIDDWQKQAHHSNVPGSVFKARMKQCKKEFKAG-NH2 (disulfide 1-5, 10-35) [compound 176]”, the IC50 lay in the range of 1 to 100 nM.

By IC50 is commonly meant the concentration that gives 50% inhibition.

The record behind these values is patent US20210395313A1, “PEPTIDE PAC1 ANTAGONISTS” (AMGEN INC., priority 2017, published 2021).
